Test results published in US6403633B2, “Heteroaryl amidines, methylamidines and guanidines, and use thereof as protease inhibitors” (3-Dimensional Pharmaceuticals, Inc., priority 1998, dated 2002).
pKi: −log10 of the molar value. Counter-ions that a name gives are not always drawn.

Target: T1, bovine trypsin (Bos taurus, UniProt P00760)
T1 construct: purchased Sigma T8642
T1 sequence (P00760 24-246): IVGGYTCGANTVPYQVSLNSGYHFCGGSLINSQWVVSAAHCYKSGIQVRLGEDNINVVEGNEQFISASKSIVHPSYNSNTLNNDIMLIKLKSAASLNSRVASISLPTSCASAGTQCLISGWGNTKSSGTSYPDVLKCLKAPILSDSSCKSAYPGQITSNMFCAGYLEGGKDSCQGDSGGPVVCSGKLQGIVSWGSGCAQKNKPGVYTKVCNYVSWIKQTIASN
Assay: In vitro inhibition of purified enzymes, Ki determination: trypsin
Type: biochemical
Settings: substrate N-benzoyl-Phe-Val-Arg-p-nitroanilide 13 μM, [Trypsin]=4 nM, pH 7.5, 37° C.
Source text: (§1) Reagents: All buffer salts were obtained from Sigma Chemical Company (St. Louis, Mo.), and were of the highest purity available. The enzyme substrates, N-benzoyl-Phe-Val-Arg-p-nitroanilide (Sigma B7632), N-benzoyl-Ile-Glu-Gly-Arg-p-nitroanilide hydrochloride (Sigma B2291), N-p-tosyl-Gly-Pro-Lys-p-nitroanilide (Sigma T6140), N-succinyl-Ala-Ala-Pro-Phe-p-nitroanilide (Sigma S7388) and N-CBZ-Val-Gly-Arg-p-nitroanilide (Sigma C7271) were obtained from Sigma. N-Succinyl-Ala-Ala-Pro-Arg-p-nitroanilide (BACHEM L-1720) and N-succinyl-Ala-Ala-Pro-Val-p-nitroanilide (BACHEM L-1770) were obtained from BACHEM (King of Prussia, Pa).
Human α-thrombin, human factor Xa and human plasmin were obtained from Enzyme Research Laboratories (South Bend, Ind.). […] In general, substrate concentrations are lower than the experimentally determined value for Km. […]
In a typical Ki determination, into each well of a 96 well plate is pipetted 280 μL of substrate solution, 10 μL of test compound solution, and the plate allowed to thermally equilibrate at 37° C. in a Molecular Devices plate reader for >15 minutes. Reactions were initiated by the addition of a 10 μL aliquot of enzyme and the absorbance increase at 405 nm is recorded for 15 minutes. […] The data are fit to a linear regression, and the value of the slope of the line calculated. The inverse of the slope is the experimentally determined Ki value. […]

| pKi | Compound |
| --- | --- |
| 6.07 | COc1cccc(-c2csc(-c3cc(C(=N)N)sc3SC)n2)c1 [Example 8, 4-[4-(3-Methoxyphenyl)(1,3-thiazol-2-yl)]-5-methylthiothiophene-2-carboxamidine hydrochloride] |
| 6.32 | CSc1sc(C(=N)N)cc1-c1nc(-c2cccc(OCC(=O)N3CCOCC3)c2)cs1 [Example 52, 5-Methylthio-4-{4-[3-(2-morpholin-4-yl-2-oxoethox)phenyl](1,3-thiazol-2-yl)}thiophene-2-carboxamidine trifluoroacetate] |

Target: T2, human kidney urokinase (Homo sapiens, UniProt P00749)
T2 construct: purchased Sigma U5004; host or cells: human kidney cells
Assay: In vitro inhibition of purified enzymes, Ki determination: urokinase (uPA)
Type: biochemical
Settings: not given
Source text: as §1, with “Sigma.” for “Sigma. N-Succinyl-Ala-Ala-Pro-Arg-p-nitroanilide (BACHEM L-1720) and N-succinyl-Ala-Ala-Pro-Val-p-nitroanilide (BACHEM L-1770) were obtained from BACHEM (King of Prussia, Pa).”
Human α-thrombin, human factor Xa and human plasmin were obtained from Enzyme Research Laboratories (South Bend, Ind.). Bovine α-chymotrypsin (Sigma C4129), bovine trypsin (Sigma T8642) and human kidney cell urokinase (Sigma U5004) were obtained from Sigma. Human leukocyte elastase was obtained from Elastin Products (Pacific, Mo.). Ki Determinations: All assays are based on the ability of the test compound to inhibit the enzyme catalyzed hydrolysis of a peptide p-nitroanilide substrate. […] The final concentrations for each of the substrates is listed below. In general, substrate concentrations are lower than the experimentally determined value for Km. Test compounds are prepared as a 1.0 mg/ml solution in DMSO. Dilutions are prepared in DMSO yielding 8 final concentrations encompassing a 200 fold concentration range. Enzyme solutions are prepared at the concentrations listed below in assay buffer.
Data corresponding to less than 10% of the total substrate hydrolysis were used in the calculations. The ratio of the velocity (rate of change in absorbance as a function of time) for a sample containing no test compound is divided by the velocity of a sample containing test compound, and is plotted as a function of test compound concentration. The data are fit to a linear regression, and the value of the slope of the line calculated. The inverse of the slope is the experimentally determined Ki value. Thrombin: Thrombin activity was assessed as the ability to hydrolyze the substrate N-succinyl-Ala-Ala-Pro-Arg-p-nitroanilide. […] Final DMSO concentration was 4.3%. […] Factor X [FXa]: FXa activity was assessed as the ability to hydrolyze the substrate N-benzoyl-Ile-Glu-Gly-Arg-p-nitroanilide hydrochloride. […] Final DMSO concentration was 4.3%. Purified activated human Factor X was diluted into assay buffer to a concentration of 300 nM. […] Plasmin: Plasmin activity was assessed as the ability to hydrolyze the N-p-Tosyl-Gly-Pro-Lys-p-nitroanilide. […] Final DMSO concentration was 4.3%. […] Chymotrypsin: Chymotrypsin activity was assessed as the ability to hydrolyze N-succinyl-Ala-Ala-Pro-Phe-p-nitroanilide. […] Final DMSO concentration was 4.3%. […] Trypsin: Trypsin activity was assessed as the ability to hydrolyze N-benzoyl-Phe-Val-Arg-p-nitroanilide. […] Final DMSO concentration was 4.3%. […] Elastase: Elastase activity was assessed as the ability to hydrolyze N-succinyl-Ala-Ala-Pro-Val-p-nitroanilide. […] Final DMSO concentration was 4.3%. […] Urokinase: Urokinase activity was assessed as the ability to hydrolyze N-CBZ-Val-Gly-Arg-p-nitroanilide. […] Final DMSO concentration was 4.3%. […] Final reagent concentrations were: [Urokinase]=40 nM, and N-CBZ-Val-Gly-Arg-p-nitroanilide]=[…].

| Compound | pKi |
| --- | --- |
| CSc1sc(C(=N)N)cc1Oc1ccccc1 [Example 288, 5-Methylthio-4-phenoxythiophene-2-carboxamidine trifluoroacetate] | 5.46 to 7.80 |

Same assay, conditions: uPA; substrate N-CBZ-Val-Gly-Arg-p-nitroanilide; [Urokinase]=40 nM; pH 7.5, 37° C.; one range stated for the listed compounds; read-out: Ki values for uPA

| pKi | Compound |
| --- | --- |
| 5.46 to 7.80 | CSc1sc(C(=N)N)cc1N(S(=O)(=O)c1ccc(Cl)cc1)S(=O)(=O)c1ccc(Cl)cc1 [Example 281, 4-{Bis[(4-chlorophenyl)sulfonyl]amino}-5-methylthiothiophene-2-carboxamidine] |
| 5.46 to 7.80 | CSc1sc(C(=N)N)cc1-c1ncc(-c2ccccc2)o1 [Example 79, 5-Methylthio-4-(5-phenyl(1,3-oxazol-2-yl))thiophene-2-carboxamidine hydrochloride] |
| 5.46 to 7.80 | CSc1sc(C(=N)N)cc1-c1nc(-c2ccccc2)co1 [Example 84, 5-Methylthio-4-(4-phenyl(1,3-oxazol-2-yl))thiophene-2-carboxamidine hydrochloride] |
| 5.46 to 7.80 | CSc1sc(C(=N)N)cc1NC(=O)c1ccc2ccccc2n1 [Example 235, 5-Methylthio-4-(2-quinolylcarbonylamino)thiophene-2-carboxamidine] |
| 5.46 to 7.80 | COc1sc(C(=N)N)cc1-c1nc(-c2ccccc2)cs1 [Example 139, 5-Methoxy-4-(4-phenyl(1,3-thiazol-2-yl))thiophene-2-carboxamidine] |
| 5.46 to 7.80 | CSc1sc(C(=N)N)cc1NC(=O)/C=C/c1ccccc1 [Example 227, 4-((2E)-3-Phenylprop-2-enoylamino)-5-methylthiothiophene-2-carboxamidine] |
| 5.46 to 7.80 | CSc1sc(C(=N)N)cc1NC(=O)c1ccc(Oc2cc(Cl)cc(Cl)c2)o1 [Example 233] |
| 5.46 to 7.80 | CSc1sc(C(=N)N)cc1NCc1ccccc1 [Example 220, 5-Methylthio-4-[benzylamino]thiophene-2-carboxamidine] |
| 5.46 to 7.80 | CSc1sc(C(=N)N)cc1Nc1ccc2ccccc2c1 [Example 208, 5-Methylthio-4-(2-naphthylamino)thiophene-2-carboxamidine] |
| 5.46 to 7.80 | CSc1sc(C(=N)N)cc1NC(=O)COc1ccccc1 [Example 239, 5-Methylthio-4-(2-phenoxyacetylamino)thiophene-2-carboxamidine] |
| 5.46 to 7.80 | COc1ccc(OC)c(-c2csc(-c3cc(C(=N)N)sc3SC)n2)c1 [Example 28, 4-[4-(2,5-Dimethoxyphenyl)(1,3-thiazol-2-yl)]-5-methylthiothiophene-2-carboxamidine hydrochloride] |
| 5.46 to 7.80 | CSc1sc(C(=N)N)cc1-c1nc(-c2ccccc2)c(-c2ccccc2)s1 [Example 131, 4-(4,5-Diphenyl(1,3-thiazol-2-yl))-5-methylthiothiophene-2-carboxamidine] |
| 5.46 to 7.80 | CSc1sc(C(=N)N)cc1Nc1cccc([N+](=O)[O-])c1 [Example 213, 5-Methylthio-4-[(3-nitrophenyl)amino]thiophene-2-carboxamidine] |
| 5.46 to 7.80 | CSc1sc(C(=N)N)cc1Nc1nc(-c2ccccc2)cs1 [Example 204, 5-Methylthio-4-[(4-phenyl(1,3-thiazol-2-yl))amino]thiophene-2-carboxamidine] |
| 5.46 to 7.80 | CSc1sc(C(=N)N)cc1-c1nc(-c2cc(C(C)(C)C)nn2Cc2ccccc2)cs1 [Example 143, 4-{4-[3-(tert-Butyl)-1-benzylpyrazol-5-yl](1,3-thiazol-2-yl)}-5-methylthiothiophene-2-carboxamidine] |
| 5.46 to 7.80 | CSc1sc(C(=N)N)cc1Nc1ncccn1 [Example 200, 5-Methylthio-4-(pyrimidin-2-ylamino)thiophene-2-carboxamidine hydrochloride] |
| 5.46 to 7.80 | CSc1sc(C(=N)N)cc1-c1nc(-c2cccc(OCC(=O)O)c2)cs1 [Example 40, 2-{3-[2-(5-Amidino-2-methylthio-3-thienyl)-1,3-thiazol-4-yl]phenoxy}acetic acid] |
| 5.46 to 7.80 | CSc1sc(C(=N)N)cc1C(=N)NCc1ccccc1 [Example 89, 4-{Imino[benzylamino]methyl}-5-methylthiothiophene-2-carboxamidine hydrochloride] |
| 5.46 to 7.80 | C[S+]([O-])c1sc(C(=N)N)cc1-c1nc(-c2ccc(Cl)cc2)cs1 (stereo not shown) [Example 138, 4-[4-(4-Chlorophenyl)(1,3-thiazol-2-yl)]-5-(methylsulfinyl)thiophene-2-carboxamidine] |
